Key:
[1] = system: Russet Norkotah potato tubers; assay: Sprout inhibition of stored potato tubers, Russet Norkotah (% OK for fresh pack); assay type: in vivo, Solanum tuberosum
Source text: (§1) The storage system was designed to duplicate a large commercial storage facility in miniature. Drums containing 150-200 pounds of potatoes were sealed and housed in a building in which temperature and humidity could be controlled. Formed in each drum is an inlet in which untreated air (ventilation air) was introduced under a perforated floor to the drum. The ventilation air moves through the pile of potatoes and is exhausted from the top of the drum to the outside of the building.
(§2) This storage ventilation was shut down for a 24 hour duration during and directly after the treatment of the chemicals. Then it is maintained for the duration of the trial, with ventilation air forced through the drums at a rate of 0.5 cubic feet per minute on a three-hour on and a three-hour off schedule.
(§3) In the spray application technique the formulations were mixed with water and sprayed on the newly harvested tubers at a rate of 5 and 10 parts per million (weight of the active to weight of the potatoes) mixed in a water carrier. The mixture was applied at 1 quart per ton of potatoes. The spray was applied via a hand held spray gun propelled with compressed air as the tubers were rotating in a cement mixer drum. This insured that all surface area is coated with the active ingredient.
(§4) The Fogs were all applied with thermal foggers built to duplicate applications of commercial thermal fogging techniques.
(§5) The custom thermal fogger's heat source was an electric hot plate set at 500 degrees F. This temperature is monitored throughout the application with a thermal couple that is inserted in a cavity just below the surface where the chemical is placed. A chamber was attached to the hot plate. A fan was mounted to the top of the chamber. The fogger was attached to the storage container with flexible tubing.
(§6) The fog was delivered to each drum through separate ports. Through the bottom port of the storage drum a perforated stinger was installed that runs the length of the drum. Flexible tubing delivered the fog air mixture from the fogger. The fog air mixture was returned to the thermal fogger through a second flexible tubing that was attached from the top of the storage drum to the bottom of the thermal fogger. The air fog mixture was recirculated through the system for five minutes.
(§7) The potatoes were monitored for sprout activity on a regular basis after treatment. When early sprout activity was observed the potatoes were first evaluated. Then at approximately 30 day intervals, 60 tubers were randomly selected from each treatment. Each tuber was rated for the length of the longest sprout on each tuber. The scale used for the rating system as is follows: • 0-Not Peeping=no sprout or swelling of eye tissue evident. • 1-Peeping=swelling of eye tissue up to a sprout length of 3 mm • 2-sprout length from 3 mm to […]. • 3-sprout length from 1 cm to 3 cm. • 4-sprout length from 3 cm to 5 cm. • 5-sprout length from 5 cm and longer
(§8) Results of each set of 60 tubers were recorded into 6 subsets of 10 tubers each (replicates). The data is summarized into PERCENT OK RE: FRESHPCK (Fresh pack). The PERCENT OK RE: FRESHPCK is the percent of the tubers that are NOT PEEPING and PEEPING categories combined together (i.e., the addition of the percentage of potatoes rated that are in the “0”-Not peeping=(no sprout or swelling of the eye tissue evident) plus “1” Peeping=(swelling of the eye tissue up to a sprout length of 3 mm.).
(§9) Analysis times are approximate days after harvest (DAH)

[2] = system: Russet Burbank potato tubers; assay: Sprout inhibition of stored potato tubers, Russet Burbank (% OK for fresh pack); assay type: in vivo, Solanum tuberosum
Source text: as §1, §2, §3, §4, §5, §6, §7, §8, §9

SMILES	% OK For Fresh Pack, Dormant + sprout up to 3 mm ([1]; 5 ppm Spray, 53 DAH) [%]	% OK For Fresh Pack, Dormant + sprout up to 3 mm ([1]; 5 ppm Spray, 85 DAH) [%]	% OK For Fresh Pack, Dormant + sprout up to 3 mm ([1]; 5 ppm Spray, 107 DAH) [%]	% OK For Fresh Pack, Dormant + sprout up to 3 mm ([1]; 10 ppm Spray, 53 DAH) [%]	% OK For Fresh Pack, Dormant + sprout up to 3 mm ([1]; 10 ppm Spray, 85 DAH) [%]	% OK For Fresh Pack, Dormant + sprout up to 3 mm ([1]; 10 ppm Spray, 107 DAH) [%]	% OK For Fresh Pack, Dormant + sprout up to 3 mm ([2]; 5 ppm Spray, 132 DAH) [%]	% OK For Fresh Pack, Dormant + sprout up to 3 mm ([2]; 5 ppm Spray, 161 DAH) [%]	% OK For Fresh Pack, Dormant + sprout up to 3 mm ([2]; 5 ppm Spray, 191 DAH) [%]	% OK For Fresh Pack, Dormant + sprout up to 3 mm ([2]; 5 ppm Spray, 223 DAH) [%]	% OK For Fresh Pack, Dormant + sprout up to 3 mm ([2]; 5 ppm Spray, 252 DAH) [%]	% OK For Fresh Pack, Dormant + sprout up to 3 mm ([2]; 5 ppm Spray, 283 DAH) [%]	other results
CCOC1Oc2ccc(OS(C)(=O)=O)cc2C1(C)C (racemic) [ETH, (RS)-2-ethoxy-2,3-dihydro-3,3-dimethylbenzofuran-5-yl methanesulfonate]	68.3	11.7	0.0	93.3	33.3	3.3							
CC(C)(C)[C@@H](O)[C@@H](Cc1ccc(Cl)cc1)n1cncn1 (racemic) [PAC, (2RS,3RS)-1-(4-chlorophenyl)-4,4-dimethyl-2-(1H-1,2,4-triazol-1-yl)pentan-3-ol]	93.3	13.3	1.7	86.7	13.3	0.0							
CCCCC(CC)COC(=O)COc1ccc(Cl)cc1Cl (stereo not drawn) [2,4 D LV, Isoocotyl (2-ethylhexyl) ester of 2,4-dichlorophenoxyacetic acid]							96.7	30.0	8.3	0.0	0.0	0.0	
O=C(O)CCCOc1ccc(Cl)cc1Cl [2,4 DB, Dimethyl Amine of 4-(2,4-Dichloropenoxy) butyric acid]	81.7	3.3	0.0	91.7	11.7	0.0							
CC(C)OC(=O)Nc1cccc(Cl)c1 [CIPC 98A, isopropyl 3-chlorophenylcarbamate]													% OK For Fresh Pack, Dormant + sprout up to 3 mm ([2]; 11 ppm Fog, 132 DAH): 100.0%; % OK For Fresh Pack, Dormant + sprout up to 3 mm ([2]; 11 ppm Fog, 161 DAH): 26.7%; % OK For Fresh Pack, Dormant + sprout up to 3 mm ([2]; 11 ppm Fog, 191 DAH): 0.0%; % OK For Fresh Pack, Dormant + sprout up to 3 mm ([2]; 11 ppm Fog, 223 DAH): 0.0%; % OK For Fresh Pack, Dormant + sprout up to 3 mm ([2]; 11 ppm Fog, 252 DAH): 0.0%; % OK For Fresh Pack, Dormant + sprout up to 3 mm ([2]; 11 ppm Fog, 283 DAH): 0.0%; % OK For Fresh Pack, Dormant + sprout up to 3 mm ([2]; 16.6 ppm Fog, 132 DAH): 100.0%; % OK For Fresh Pack, Dormant + sprout up to 3 mm ([2]; 16.6 ppm Fog, 161 DAH): 26.7%; % OK For Fresh Pack, Dormant + sprout up to 3 mm ([2]; 16.6 ppm Fog, 191 DAH): 0.0%; % OK For Fresh Pack, Dormant + sprout up to 3 mm ([2]; 16.6 ppm Fog, 223 DAH): 0.0%; % OK For Fresh Pack, Dormant + sprout up to 3 mm ([2]; 16.6 ppm Fog, 252 DAH): 0.0%; % OK For Fresh Pack, Dormant + sprout up to 3 mm ([2]; 16.6 ppm Fog, 283 DAH): 0.0%
CC(C)OC(=O)Nc1cccc(Cl)c1 [CIPC A, isopropyl 3-chlorophenylcarbamate]													% OK For Fresh Pack, Dormant + sprout up to 3 mm ([1]; 16.6 ppm Fog, 53 DAH): 100.0%; % OK For Fresh Pack, Dormant + sprout up to 3 mm ([1]; 16.6 ppm Fog, 85 DAH): 86.7%; % OK For Fresh Pack, Dormant + sprout up to 3 mm ([1]; 16.6 ppm Fog, 107 DAH): 86.7%
CCNC(=O)[C@@H](C)OC(=O)Nc1ccccc1 [Car, Ethyl-2-(((phenylamino)carbonyl)oxy)promanamide]							93.3	8.3	0.0	0.0	0.0	0.0	
CC(=O)Nc1cc(NS(=O)(=O)C(F)(F)F)c(C)cc1C [MEF, N-[2,4-dimethyl-5-[[(trifluoromethyl)sulfonyl]amino]phenyl]acetamide]	81.7	11.7	0.0	93.3	13.3	0.0							
C#CC(C)(C)NC(=O)c1cc(Cl)cc(Cl)c1 [PRO, 3,5-dichloro-N-(1,1-dimethyl-2-propynyl)benzamide]	100.0	90.0	18.3	100.0	80.0	28.3	100.0	83.3	71.7	61.7	60.0	50.0	

Reference: patent publication US20070135307A1, “Inhibition of tuber sprouting” (ACETO AGRICULTURAL CHEMICALS CORP., priority 2005, published 2007)
